From article PMC12467487, “An In Vitro Study of Protein S-Glutathionylation by Members of the CLIC Protein Family” (Biomolecules, 2025)

How the values were obtained:
Test in all cases: tryptophan fluorescence quenching, glutathionylation of SQLWCLSN, AUC
Assay type in all cases: biochemical
[1] = molecular target: T1, rCLIC1 (Homo sapiens, UniProt O00299); settings: 5 mM GSSG, 100 uM peptide, McIlvaine's buffer pH 7, 0.1 uM enzyme; 1 h pre-incubation with 10 uM IAA-94
T1 construct: gene CLIC1; recombinant, soluble form; pET28a(+), ClearColi BL21(DE3); His-tag removed by thrombin; SEC

[2] = molecular target: T2, rCLIC3 (Homo sapiens, UniProt O95833); settings: 5 mM GSSG, 100 uM peptide, McIlvaine's buffer pH 8, 0.1 uM enzyme; 1 h pre-incubation with 10 uM IAA-94
T2 construct: gene CLIC3; recombinant, soluble form; pET28a(+), E. coli BL21(DE3); His-tag removed by thrombin; SEC; endotoxin removed
T2 sequence (O95833 whole entry): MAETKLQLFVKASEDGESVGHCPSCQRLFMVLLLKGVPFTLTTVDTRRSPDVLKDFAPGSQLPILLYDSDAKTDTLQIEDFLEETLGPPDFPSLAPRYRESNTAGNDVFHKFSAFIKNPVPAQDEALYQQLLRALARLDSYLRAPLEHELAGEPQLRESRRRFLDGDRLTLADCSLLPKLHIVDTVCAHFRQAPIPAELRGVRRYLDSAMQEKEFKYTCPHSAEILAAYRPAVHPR

[3] = molecular target: T3, rCLIC4 (Homo sapiens, UniProt Q9Y696); settings: 5 mM GSSG, 100 uM peptide, McIlvaine's buffer pH 7, 0.1 uM enzyme; 1 h pre-incubation with 10 uM IAA-94
T3 construct: gene CLIC4; recombinant, soluble form; pET28a(+), ClearColi BL21(DE3); His-tag removed by thrombin; SEC
T3 sequence (Q9Y696 whole entry): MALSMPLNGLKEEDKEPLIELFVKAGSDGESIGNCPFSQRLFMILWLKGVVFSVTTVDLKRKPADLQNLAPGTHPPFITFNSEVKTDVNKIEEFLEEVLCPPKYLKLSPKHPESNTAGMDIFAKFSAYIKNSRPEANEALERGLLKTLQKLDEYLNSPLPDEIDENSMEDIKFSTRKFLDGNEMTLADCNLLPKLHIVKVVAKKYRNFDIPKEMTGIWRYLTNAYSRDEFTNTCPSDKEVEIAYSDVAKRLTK

Q: Which “fold decrease in glutathionylation activity at 10 uM” value [1] does the source give for `CC1(C2CCCC2)Cc2cc(OCC(=O)O)c(Cl)c(Cl)c2C1=O` (stereo not drawn) [IAA-94] here?
A: 0.7 fold

Q: And the “fold reduction of glutathionylation activity at 10 uM” value [2]?
A: 0.2 fold

Q: What about the “fold decrease in glutathionylation activity at 10 uM” value [3] of the same molecule?
A: 0.4 fold
